Source: publication PMC11280390, “Synthesis of Nitrostyrylthiazolidine-2,4-dione Derivatives Displaying Antileishmanial Potential” (Pharmaceuticals, 2024)
Like-named read-outs stand apart in the source and are kept apart here.

Columns and labels:
[1] = system: Leishmania infantum promastigotes; assay: In vitro antileishmanial activity on L. infantum promastigotes (MTT, 72 h); type: cell-based; conditions: read-out: Anti-L. infantum Promastigote Activity EC50
Protocol: Luciferase-expressing Leishmania infantum was kindly provided by Professor Thierry Lang of the Institut Pasteur. L. infantum promastigotes were routinely grown at 27 °C in Schneider’s Drosophila Medium (Dominique […] SAS, Bernolsheim, France) supplemented with 10% fetal calf serum, 2% human urine, sodium pyruvate 0.04 mM, hemin 0.1 µg/mL, HEPES 5 mM, streptomycin 100 µg/mL, penicillin 100 U/mL, L-glutamine 2 mM (culture medium). The in vitro evaluation of the antileishmanial activity of the tested compound on L. infantum promastigotes forms was assessed according to the Mosmann protocol with slight modifications. […] Appropriate controls treated with DMSO, Miltefosine, Amphotericin B and Fexinidazole sulfone (reference drugs purchased from Sigma-Aldrich, Saint-Louis, MO, USA) were added to each set of experiments. The plates were incubated at 27 °C for 72 h, Then, each plate-well was microscope-analyzed to detect any precipitate formation. Afterward, 20 µL of MTT (3-(4,5-dimethylthiazol-2-yl)-2,5-diphenyltetrazolium bromide) (Sigma-Aldrich, Saint-Louis, MI, USA) solution (5 mg/mL in PBS) were added to each well and incubated at 27 °C for 4 h. The reaction was then stopped by the addition of 100 µL of 10% sodium dodecyl sulfate—50% isopropanol. Plates were shaken vigorously at 400 rpm for 10 min. […] EC50 values represent the mean value calculated from at least three separate experiments.

[2] = In vitro cytotoxicity on the human hepatic HepG2 cell line (MTT, 72 h); conditions: human
Protocol: (§1) HepG2 cell line (hepatocarcinoma cell line purchased from ATCC, ref HB-8065) was maintained at 37 °C, 5% CO2 with 90% humidity in MEM supplemented with 10% fetal bovine serum, 1% L-glutamine (200 mM) and penicillin (100 U/mL)/streptomycin ([…]) (complete MEM medium). The tested molecules’ cytotoxicity was assessed according to the method of Mosmann with slight modifications. Briefly, 5 × 10^3 cells in 100 μL of complete medium were inoculated into each well of 96-well plates and incubated at 37 °C in a humidified 5% CO2. After 24 h incubation, 100 μL of medium with various product concentrations dissolved in DMSO (final concentration less than 0.5% v/v) were added and the plates were incubated for 72 h at 37 °C. Triplicate assays were performed for each sample. Each plate well was then microscope-examined to detect possible precipitate formation before the medium was aspirated from the wells. Then, 100 μL of MTT (3-(4,5-dimethyl-2-thiazolyl)-2,5-diphenyl-2H-tetrazolium bromide) solution (0.5 mg/mL in medium without FCS) were then added to each well. Cells were incubated for 2 h at 37 °C, following which the MTT solution was removed and DMSO (100 μL) was added to dissolve the resulting blue formazan crystals. Plates were shaken vigorously (700 rpm) for 10 min. The absorbance was measured at 570 nm with 630 nm as reference wavelength using a TECAN Infinite F-200 spectrophotometer (Tecan Trading AG, Männedorf, Switzerland). DMSO was used as blank and doxorubicin (purchased from Sigma Aldrich, Saint Louis, MI, USA) as positive control. Cell viability was calculated as a percentage of control (cells incubated without compound). […] CC50 values represent the mean value calculated from three separate experiments.

HepG2 cell line = assay: as above; conditions: for Selectivity INDEX (SI = CC50/EC50): HepG2 CC50 / L. infantum promastigote EC50; for CC50: read-out: HepG2 Cytotoxicity CC50, HepG2, 72 h, MTT
Protocol: as §1

[3] = Leishmania infantum, L. infantum promastigotes, MTT
[4] = HepG2 cells (hepatocarcinoma cell line, ATCC HB-8065), HepG2 Cytotoxicity CC50, HepG2, 72 h, MTT

Row | Compound | EC50 [1, 3] [µM] | CC50 at 72 h [2, 4] [µM] | Selectivity INDEX (SI = CC50/EC50) (HepG2 cell line) | melting point [°C] | EC50 ([1]; Leishmania infantum) [µM] | CC50 at 72 h [2] [µM] | EC50 ([1]; L. infantum promastigotes, MTT) [µM] | CC50 (HepG2 cell line) [µM]
1 | CCOC(=O)CN1C(=O)S/C(=C\c2ccccc2[N+](=O)[O-])C1=O [Compound 12b, Ethyl ((Z)-5-(2-nitrobenzylidene)thiazolidine-2,4-dion-3-yl)acetate] | 24.1 ± 5.14 | 39.4 ± 7.09 | 1.6 | 81 to 83 |  |  |  | 
2 | O=C(CN1C(=O)S/C(=C\c2ccc([N+](=O)[O-])cc2)C1=O)Nc1ccc([N+](=O)[O-])cc1 [Compound 26d, (Z)-2-(5-(4-Nitrobenzylidene)thiazolidine-2,4-dion-3-yl)-N-(4-nitroyphenyl) acetamide] |  |  | >1.8 | 284 to 285 | 14.1 ± 2.8 | > 25 |  | 
3 | O=C(CN1C(=O)S/C(=C\c2ccccc2[N+](=O)[O-])C1=O)Nc1ccc(Cl)cc1 [Compound 27b, (Z)-N-(4-Chlorophenyl)-2-(5-(2-nitrobenzylidene)thiazolidine-2,4-dion-3-yl) acetamide] | 16.3 ± 3.85 | 34.6 ± 3.03 | 2.1 | 188 to 190 |  |  |  | 
4 | O=C1NC(=O)/C(=C/c2ccc([N+](=O)[O-])cc2)S1 [Compound 5] |  | 137.1 ± 1.22 | 9.4 |  |  |  | 14.6 ± 2.9 | 
5 | Cc1ccc(NC(=O)CN2C(=O)S/C(=C\c3ccccc3[N+](=O)[O-])C2=O)cc1 [Compound 24b, (Z)-N-(4-Methylphenyl)-2-(5-(2-nitrobenzylidene)thiazolidine-2,4-dion-3-yl) acetamide] | 24.8 ± 6.68 | 30.9 ± 3.97 | 1.2 | 181 to 183 |  |  |  | 
6 | CCOC(=O)CN1C(=O)S/C(=C\c2ccccc2)C1=O [Compound 12a] | 20.6 ± 5.86 | 194 ± 8.92 | 9.4 |  |  |  |  | 
7 | O=C(CN1C(=O)S/C(=C\c2ccccc2[N+](=O)[O-])C1=O)c1ccccc1 [Compound 16b, (Z)-5-(2-Nitrobenzylidene)-3-(2-oxo-2-phenylethyl)thiazolidine-2,4-dione] | 5.57 ± 1.28 | 11 ± 2.28 | 2.0 | 156 to 158 |  |  |  | 
8 | O=C(CN1C(=O)S/C(=C\c2ccccc2[N+](=O)[O-])C1=O)Nc1ccc([N+](=O)[O-])cc1 [Compound 26b, (Z)-2-(5-(2-Nitrobenzylidene)thiazolidine-2,4-dion-3-yl)-N-(4-nitroyphenyl) acetamide] |  |  | 2.1 | 213 to 215 | 14.6 ± 2.91 | 30.1 ± 3.94 |  | 
9 | O=C(CN1C(=O)S/C(=C\c2ccccc2[N+](=O)[O-])C1=O)Nc1ccccc1 [Compound 23b, (Z)-2-(5-(2-Nitrobenzylidene)thiazolidine-2,4-dion-3-yl)-N-phenylacetamide] | 11.6 ± 3.43 | 22.3 ± 0.59 | 1.9 | 186 to 188 |  |  |  | 
10 | CCOC(=O)CN1C(=O)S/C(=C\c2ccc([N+](=O)[O-])cc2)C1=O [Compound 12d, Ethyl ((Z)-5-(4-nitrobenzylidene)thiazolidine-2,4-dion-3-yl)acetate] | 11.6 ± 2.37 | 101 to 125 | >10.8 | 136 to 138 |  |  |  | > 125
11 | O=C(CN1C(=O)S/C(=C\c2cccc([N+](=O)[O-])c2)C1=O)c1ccccc1 [Compound 16c, (Z)-5-(3-Nitrobenzylidene)-3-(2-oxo-2-phenylethyl)thiazolidine-2,4-dione] | 3.22 ± 0.94 | > 12.5 | >3.9 | 160 to 162 |  |  |  | 
12 | O=C(CN1C(=O)S/C(=C\c2ccc([N+](=O)[O-])cc2)C1=O)Nc1ccc(Cl)cc1 [Compound 27d, (Z)-N-(4-Chlorophenyl)-2-(5-(4-nitrobenzylidene)thiazolidine-2,4-dion-3-yl) acetamide] | 17.3 ± 4.17 | > 12.5 | >0.7 | 252 to 254 |  |  |  | 
13 | O=C(O)CN1C(=O)S/C(=C\c2cccc([N+](=O)[O-])c2)C1=O [Compound 29, (Z)-2-(5-(3-Nitrobenzylidene)thiazolidin-2,4-dion-3-yl)acetic Acid] | > 50 | > 250 |  | 191 to 193 |  |  |  | 
14 | O=C(CN1C(=O)S/C(=C\c2ccccc2[N+](=O)[O-])C1=O)Nc1ccccc1Cl [Compound 28b, (Z)-N-(2-Chlorophenyl)-2-(5-(2-nitrobenzylidene)thiazolidine-2,4-dion-3-yl) acetamide] | 16.1 ± 4.32 | 23 ± 3.2 | 1.4 | 174 to 175 |  |  |  | 
15 | COc1cc(/C=C2\SC(=O)N(CC(=O)Nc3ccc(Cl)cc3)C2=O)cc(OC)c1OC [Compound 27e, (Z)-N-(4-Chlorophenyl)-2-(5-(3,4,5-trimethoxybenzylidene)thiazolidine-2,4-dion-3-yl)acetamide] | 5 ± 1.98 | 19.4 ± 2.05 | 3.9 | 218 to 219 |  |  |  | 
16 | COc1ccc(NC(=O)CN2C(=O)S/C(=C\c3ccccc3[N+](=O)[O-])C2=O)cc1 [Compound 25b, (Z)-2-(5-(2-Nitrobenzylidene)thiazolidine-2,4-dion-3-yl)-N-(4-methoxyphenyl) acetamide] | 22.3 ± 4.93 | 23.3 ± 2.93 | 1.1 | 204 to 205 |  |  |  | 
17 | O=C(CN1C(=O)S/C(=C\c2cccc([N+](=O)[O-])c2)C1=O)Nc1ccc([N+](=O)[O-])cc1 [Compound 26c, (Z)-2-(5-(3-Nitrobenzylidene)thiazolidine-2,4-dion-3-yl)-N-(4-nitroyphenyl) acetamide] |  |  | >3.5 | 264 to 266 | 7.2 ± 1.48 | > 25 |  | 
18 | N#CCN1C(=O)S/C(=C\c2ccc([N+](=O)[O-])cc2)C1=O [Compound 14d, (Z)-2-(5-(4-Nitrobenzylidene)thiazolidine-2,4-dion-3-yl)acetonitrile] | 24.8 ± 6.09 | 109 ± 11 | 4.4 | 193 to 195 |  |  |  | 
19 | NC(=O)CN1C(=O)S/C(=C\c2cccc([N+](=O)[O-])c2)C1=O [Compound 15c, (Z)-2-(5-(3-Nitrobenzylidene)thiazolidine-2,4-dion-3-yl)acetamide] | 13.3 ± 7.75 | > 62.5 | >4.7 | 256 to 258 |  |  |  | 
20 | CCOC(=O)CN1C(=O)S/C(=C\c2cccc([N+](=O)[O-])c2)C1=O [Compound 12c, Ethyl ((Z)-5-(3-nitrobenzylidene)thiazolidine-2,4-dion-3-yl)acetate] | 5.51 ± 1.29 | 101 to 125 | >22.7 |  |  |  |  | > 125
21 | O=C1NC(=O)/C(=C/c2cccc([N+](=O)[O-])c2)S1 [Compound 4] | 28 ± 7.15 | 190 ± 18.6 | 6.8 |  |  |  |  | 
